# “And” between values parts separate entries of the source, which are not always exact repeats. Equal entries are not always repeated.
# Experiments:
# [1] = cold water; cited from earlier work
# [2] = rats, orally; cited from earlier work
# RXF 944LX = assay: Dose finding study in human renal cancer model RXF 944LX in nude mice (i.p. days 0, 7, 14); conditions: for BW loss % (day) / Drug-related deaths / Rating / SGD (specific growth delay) / T/C %: days 0, 7, 14
# Text: In a dose finding study, the potential anticancer activity of sodium meta-arsenite and arsenic acid sodium salt versus arsenic trioxide was examined in the human renal cancer model, RXF 944LX.
# Cancer fragments (1-2 mm in diameter), obtained from xenografts in serial passage in nude mice, were implanted subcutaneously (S.C.) in a flank of male NRMI nude mice (one fragment per mouse). Mice with appropriate cancer volumes (5-7 mm in diameter) were randomly distributed to treatment and control groups (4 mice/group). The start of treatment was day 0. Cancer volume and body weights were measured at least twice per week.
# 1) Sodium meta-arsenite (3, 10, 30 mg/kg/day), 2) Arsenic acid sodium salt (3, 10, 30 mg/kg/day) and 3) Arsenic trioxide (3, 10, 30 mg/kg/day) were administered intraperitoneally (i.p.) once daily on days 0, 7 and 14.
# Stock solution of sodium meta-arsenite and arsenic acid sodium salt (3 mg/ml) were prepared in 5% (w/v) dextrose solution, respectively, to minimize acute arsenic toxicity. For arsenic trioxide, 9 mg of arsenic trioxide was dissolved in 1M NaOH (75 μl) followed by mixing with sterile aqua injectabilia (2175 μl) and sterile 20% (w/v) dextrose in water (500 μl). Further dilution to the desired concentration was done with a 5% dextrose solution to give a final concentration of 3 mg/ml.
# The cancer volume of each animal was determined by two-dimensional measurement using calipers. The volume was calculated according to the formula: (a×b^2)×0.5; wherein a and b represent two perpendicular diameters in which a (length) is the larger diameter and b (width) the smaller diameter.
# Relative cancer volumes (RCV) were calculated for each individual cancer by dividing the cancer volume on day X by the cancer volume on day 0 multiplied by 100%. The cancer volume of a treatment group was expressed as the median RCV of all mice of the group. Median RCV values were used for drawing growth curves and treatment evaluation. Optimal cancer growth inhibition at a particular day within the treatment period was calculated from the median RCV values of the treated (T) versus the controlled (C) group multiplied by 100%. A T/C value<50% was considered as anti-cancer activity.
# ALL-SCID 4 = assay: Anticancer activity in human leukemia model ALL-SCID 4; conditions: for BW loss % (day) / Drug-related deaths / T/C %: days 25-35
# Text: Anticancer activity of the sodium meta-arsenite and arsenic trioxide against two human paediatric acute lymphoblastic leukemia (ALL) models in vivo, ALL-SCID 4 was investigated to compare.
# Male NOD/SCID mice (deficient in T and B lymphocytes, NK cells and functional macrophages) were transplanted s.c. on day 0 with fragments of ALL-SCID 4 cancers, which were obtained from mice used for routine passage of the cancers. Mice were randomized to the scheduled treatment groups.
# Sodium meta-arsenite was administered orally at 2, 4 and 6 mg/kg/day (⅓ MTD, ⅔ MTD and MTD) once every day from day 34-54 after transplantation. The vehicle control (5% glucose in water) was administered i.p. (10 ml/kg).
# Sodium meta-arsenite was dissolved in ready-to-use sterile infusion (5% (w/v) glucose in aqua injectabila). Arsenic trioxide was dissolved in 25 mM NaOH then dissolved in 5% glucose in aqua injectabila. The solutions were prepared freshly on the day of therapy for each administration.
# [3] = system: panel of forty-one (41) human cancer cell lines; assay: Cytotoxic activity, panel of forty-one (41) human cancer cell lines
# Text: In a next study, the cytotoxic activity of sodium meta-arsenite was head-to-head compared with arsenic trioxide in panels loaded with 41 cancer cell lines from ten human cancers.
# [4] = 10 mg/kg i.p., listed as arsenic trioxide
# [5] = panel of 41 human cancer cell lines
substance,measurement,setting,value
arsenic trioxide,Solubility,[1],sparingly and extremely slowly soluble
same,LD50,[2],15.1 mg/kg
same,BW loss % (day),RXF 944LX; 3 mg/kg i.p.,+8.4 (14) %
same,Drug-related deaths,RXF 944LX; 3 mg/kg i.p.,0/4
same,Rating,RXF 944LX; 3 mg/kg i.p.,+ (+T/C < 50)
same,SGD (specific growth delay),RXF 944LX; 3 mg/kg i.p.,−0.1
same,T/C %,RXF 944LX; 3 mg/kg i.p.,31%
same,BW loss % (day),RXF 944LX; 10 mg/kg i.p.,−5.0 (11) %
same,Drug-related deaths,RXF 944LX; 10 mg/kg i.p.,1/4
same,Rating,RXF 944LX; 10 mg/kg i.p.,+ (+T/C < 50)
same,SGD (specific growth delay),RXF 944LX; 10 mg/kg i.p.,−0.2
same,T/C %,RXF 944LX; 10 mg/kg i.p.,41%
same,BW loss % (day),RXF 944LX; [4],5%
same,Drug-related deaths,RXF 944LX; [4],one (1) out of four (4) mice died
same,Drug-related deaths,RXF 944LX; 30 mg/kg i.p.,4/4
same,Drug-related deaths,"RXF 944LX; 30 mg/kg i.p., listed as arsenic trioxide",died within a few days after the first injection
same,Maximum Tolerated Dose (MTD),"RXF 944LX; i.p. once daily on days 0, 7 and 14, RXF 944LX bearing nude mice",10 mg/kg/day
same,BW loss % (day),ALL-SCID 4; 2 mg/kg i.p.,+9 (34) %
same,Drug-related deaths,ALL-SCID 4; 2 mg/kg i.p.,0/8
same,T/C %,ALL-SCID 4; 2 mg/kg i.p.,71%
same,BW loss % (day),ALL-SCID 4; 4 mg/kg i.p.,+10 (34) %
same,Drug-related deaths,ALL-SCID 4; 4 mg/kg i.p.,0/8
same,T/C %,ALL-SCID 4; 4 mg/kg i.p.,97%
same,BW loss % (day),ALL-SCID 4; 6 mg/kg i.p.,+10 (34) %
same,Drug-related deaths,ALL-SCID 4; 6 mg/kg i.p.,0/8
same,T/C %,ALL-SCID 4; 6 mg/kg i.p.,58%
same,MTD,ALL-SCID 4; small dose finding studies prior to the ALL-SCID 4 study,6 mg/kg/day
same,activity in panel of 41,"[3]; 0.1 μg/ml, 0.01 μg/ml and 0.001 μg/ml",no observed activity
same,"cancer cell lines that responded, percent of 41","[3]; 1 μg/ml, more than 70% growth inhibition",2%
same,"cancer cell lines in which active, percent of 41",[3]; 10 μg/ml,56%
same,"selectivity (individual IC70<½ mean IC70), fraction of cell lines",[3]; breast (mammary) cancer cell lines,¼
same,"selectivity (individual IC70<½ mean IC70), fraction of cell lines",[3]; leukemia cell lines,¾
same,"selectivity (individual IC70<½ mean IC70), fraction of cell lines",[3]; melanoma cell lines,2/7
same,"fold less potent compared to sodium meta-arsenite, IC50",[3]; on the basis of μM,17 fold
same,"fold less potent compared to sodium meta-arsenite, IC70",[3]; on the basis of μM,12 fold
same,"fold less potent compared to sodium meta-arsenite, IC50",[3]; on μg/ml,27 fold
same,"fold less potent compared to sodium meta-arsenite, IC70",[3]; on μg/ml,18 fold
same,Mean IC50,[3]; [5],3.462 µg/mL
same,Mean IC70,[3]; [5],6.022 μg/ml and 30.44 μM
same,Mean IC90,[3]; [5],10.307 µg/mL
same,Mean IC70,"[3]; panel of 41 human cancer cell lines, listed as arsenic trioxide",6.022 μg/ml and 30.44 μM
same,IC50,"[3]; read-out: Mean IC50, panel of 41 human cancer cell lines",17.5 µM
same,IC90,"[3]; read-out: Mean IC90, panel of 41 human cancer cell lines",52.1 µM
